Reference: US20240383955A1, “MODIFIED ANTIMICROBIAL PEPTIDES” (priority 2021, published 2024)
≈ marks a conversion by molar mass, not a printed value. Bridge positions count the residues as written; N and C are the ends. Peptide text beside a SMILES is read from it.

Experiments:
Botrytis cinerea = conditions: Table 18
B. cinerea = test: Semi-in planta drop inoculation assay on detached leaves of N. benthamiana, gray mold symptoms; type: in vivo, B. cinerea on N. benthamiana; conditions: 48 h; for effectiveness in reducing gray mold disease symptoms: peptide tested at 1.5 μM, 3 μM and 6 μM

Structure (SMILES)	MIC (SFM + 2 mM CaCl2) (Botrytis cinerea) [µM]	MIC (SFM + 100 mM KCl) (Botrytis cinerea) [µM]	MIC (SFM + 100 mM NaCl) (Botrytis cinerea) [µM]	MIC SFM (Botrytis cinerea) [µM]	reducing the symptoms of gray mold, comparison of peptides (B. cinerea; peptide at 1.5 μM)	gray mold symptoms (B. cinerea; peptide at 3 μM and 6 μM)	effectiveness in reducing gray mold disease symptoms (B. cinerea)	reducing the symptoms of gray mold, comparison of peptides (B. cinerea; peptide at 1.5 μM and 3 μM)	gray mold symptoms (B. cinerea; peptide at 6 μM)
CC(C)C[C@@H]1NC(=O)[C@@H](NC(=O)[C@H](C)NC(=O)CN)CSSC[C@@H](C(=O)N[C@@H](Cc2ccc(O)cc2)C(N)=O)NC(=O)[C@H](Cc2c[nH]cn2)NC(=O)[C@H](CCCNC(=N)N)NC(=O)[C@H](Cc2ccc(O)cc2)NC(=O)[C@H](Cc2ccc(O)cc2)NC(=O)[C@H](Cc2c[nH]c3ccccc23)NC(=O)[C@H](Cc2ccccc2)NC(=O)[C@H](Cc2c[nH]c3ccccc23)NC(=O)CNC(=O)[C@H](Cc2ccc(O)cc2)NC(=O)[C@H](Cc2c[nH]cn2)NC(=O)[C@H](CCCCN)NC(=O)[C@H](CO)NC(=O)[C@H](Cc2c[nH]cn2)NC(=O)[C@H](CCCNC(=N)N)NC(=O)[C@H](CC(N)=O)NC(=O)[C@H](CCCCN)NC1=O [GMAOe1C_V3] (H-GACLKNRHSKHYGWFWYYRHCY-NH2; disulfide 3-21)	3 to 6	6 to 12	2 to 3	1.5 (≈ 4.31 µg/mL)	more effective than GMAOe1C_V4 or GMAOe1C_WT	completely abrogated gray mold symptoms			
CC[C@H](C)[C@@H]1NC(=O)[C@H](CCCNC(=N)N)NC(=O)[C@@H](NC(=O)[C@H](CCCNC(=N)N)NC(=O)CNC(=O)[C@@H](N)CO)CSSC[C@@H](C(N)=O)NC(=O)[C@H](CC(N)=O)NC(=O)[C@H](CCCCN)NC(=O)[C@H]([C@@H](C)O)NC(=O)[C@H](Cc2c[nH]c3ccccc23)NC(=O)[C@H](Cc2ccccc2)NC(=O)[C@H](Cc2c[nH]c3ccccc23)NC(=O)[C@H](CCCNC(=N)N)NC(=O)[C@H](Cc2ccccc2)NC(=O)[C@H](CC(C)C)NC1=O [GMA1C_V2] (H-SGRCRILFRWFWTKNC-NH2; disulfide 4-16)	3	>12	3	1.5 to 3	more effective than GMA1C_V1	completely abrogated gray mold symptoms			
CC[C@H](C)[C@@H]1NC(=O)[C@H](CCCNC(=N)N)NC(=O)[C@H]([C@@H](C)O)NC(=O)[C@H](Cc2ccccc2)NC(=O)[C@H](Cc2c[nH]c3ccccc23)NC(=O)[C@H](Cc2ccccc2)NC(=O)[C@H](CCCNC(=N)N)NC(=O)[C@H](CCCNC(=N)N)NC(=O)[C@H](CC(C)C)NC(=O)[C@H](Cc2ccccc2)NC(=O)CNC(=O)[C@H](CCCCN)NC(=O)[C@@H](NC(=O)[C@H](CCCNC(=N)N)NC(=O)CNC(=O)CN)CSSC[C@@H](C(N)=O)NC1=O [GMA4C_V9] (H-GGRCKGFLRRFWFTRIC-NH2; disulfide 4-17)	12	6 to 12	3	3 (≈ 6.3 µg/mL)			effective in reducing gray mold disease symptoms		
CC[C@H](C)[C@@H]1NC(=O)[C@H](CCCNC(=N)N)NC(=O)[C@H]([C@@H](C)O)NC(=O)[C@H](Cc2c[nH]c3ccccc23)NC(=O)[C@H](Cc2ccc(O)cc2)NC(=O)[C@H](Cc2c[nH]c3ccccc23)NC(=O)[C@H](CCCNC(=N)N)NC(=O)[C@H](CCCNC(=N)N)NC(=O)[C@H](CCCNC(=N)N)NC(=O)[C@H](Cc2ccccc2)NC(=O)CNC(=O)[C@H](CCCCN)NC(=O)[C@@H](NC(=O)[C@H](CCCNC(=N)N)NC(=O)CNC(=O)CN)CSSC[C@@H](C(N)=O)NC1=O [GMA4C_V10] (H-GGRCKGFRRRWYWTRIC-NH2; disulfide 4-17; N-terminus assumed)	3	3 to 6	3	3 (≈ 6.6 µg/mL)			effective in reducing gray mold disease symptoms	more effective in reducing the symptoms of gray mold than GMA4C_V9	completely abrogates gray mold symptoms
